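1) Cells in 96-well plates. 2) Compound, 48 h, 5 concentrations. 3) Linear interpolation between surrounding doses. 4) Unreached endpoint = highest concentration. The concentration for full growth arrest is given as TGI.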
How the values were obtained:
Assay in all cases: NCI-60 cell line screen, 48 h
CAKI-1 renal = system: CAKI-1 renal
UO-31 renal = system: UO-31 renal
A498 renal = system: A498 renal
U251 CNS = system: U251 CNS
HOP-62 NSCLC = system: HOP-62 NSCLC
SK-MEL-5 melanoma = system: SK-MEL-5 melanoma
NCI/ADR-RES ovarian = system: NCI/ADR-RES ovarian
786-0 renal = system: 786-0 renal
ACHN renal = system: ACHN renal
OVCAR-5 ovarian = system: OVCAR-5 ovarian
MOLT-4 leukemia = system: MOLT-4 leukemia
NCI-H226 lung = system: NCI-H226 lung
UACC-62 melanoma = system: UACC-62 melanoma
SK-MEL-2 melanoma = system: SK-MEL-2 melanoma
BT-549 breast = system: BT-549 breast
KM12 colon = system: KM12 colon
TK-10 renal = system: TK-10 renal
OVCAR-8 ovarian = system: OVCAR-8 ovarian
HS 578T breast = system: HS 578T breast
SNB-19 CNS = system: SNB-19 CNS
T-47D breast = system: T-47D breast
COLO 205 colon = system: COLO 205 colon
MDA-N = system: MDA-N
HOP-92 NSCLC = system: HOP-92 NSCLC
MDA-MB-231 breast = system: MDA-MB-231 breast
HCT-116 colon = system: HCT-116 colon
HL-60(TB) leukemia = system: HL-60(TB) leukemia
OVCAR-4 ovarian = system: OVCAR-4 ovarian
SW-620 colon = system: SW-620 colon
HCC-2998 colon = system: HCC-2998 colon
MDA-MB-435 = system: MDA-MB-435
OVCAR-3 ovarian = system: OVCAR-3 ovarian
HT29 colon = system: HT29 colon
SF-539 CNS = system: SF-539 CNS
NCI-H522 lung = system: NCI-H522 lung
IGROV1 ovarian = system: IGROV1 ovarian
A549 NSCLC = system: A549 NSCLC
M14 melanoma = system: M14 melanoma
NCI-H23 lung = system: NCI-H23 lung
CCRF-CEM leukemia = system: CCRF-CEM leukemia
DU-145 prostate = system: DU-145 prostate
RPMI-8226 leukemia = system: RPMI-8226 leukemia
SNB-75 CNS = system: SNB-75 CNS
UACC-257 melanoma = system: UACC-257 melanoma
SN12C renal = system: SN12C renal
SF-268 CNS = system: SF-268 CNS
HCT-15 colon = system: HCT-15 colon
MCF7 breast = system: MCF7 breast
SF-295 CNS = system: SF-295 CNS
NCI-H460 lung = system: NCI-H460 lung
EKVX NSCLC = system: EKVX NSCLC
SK-OV-3 ovarian = system: SK-OV-3 ovarian
K-562 leukemia = system: K-562 leukemia
LOX IMVI melanoma = system: LOX IMVI melanoma
PC-3 prostate = system: PC-3 prostate
SK-MEL-28 melanoma = system: SK-MEL-28 melanoma
RXF 393 renal = system: RXF 393 renal
MALME-3M melanoma = system: MALME-3M melanoma

Cc1ccc(C2(c3ccc(F)cc3)OC(=O)c3ccccc32)c(O)c1 (stereo not given)
TGI (CAKI-1 renal): 24.9 µM
TGI (UO-31 renal): 22.4 µM
TGI (A498 renal): 36.7 µM
TGI (U251 CNS): 46.2 µM
TGI (HOP-62 NSCLC): 28.8 µM
TGI (SK-MEL-5 melanoma): 33.8 µM
TGI (NCI/ADR-RES ovarian): 46.8 µM
TGI (786-0 renal): 32.1 µM
TGI (ACHN renal): 28.2 µM
TGI (OVCAR-5 ovarian): 28.5 µM
TGI (MOLT-4 leukemia): 76.3 µM
TGI (NCI-H226 lung): 76.2 µM
TGI (UACC-62 melanoma): 23 µM
TGI (SK-MEL-2 melanoma): 30.2 µM
TGI (BT-549 breast): 44.6 µM
TGI (KM12 colon): 51.6 µM
TGI (TK-10 renal): 29.6 µM
TGI (OVCAR-8 ovarian): 48 µM
TGI (HS 578T breast): 77.4 µM
TGI (SNB-19 CNS): 38.1 µM
TGI (T-47D breast): 28.1 µM
TGI (COLO 205 colon): 41.6 µM
TGI (MDA-N): 24.3 µM
TGI (HOP-92 NSCLC): 34.9 µM
TGI (MDA-MB-231 breast): 46.1 µM
TGI (HCT-116 colon): 26.2 µM
TGI (HL-60(TB) leukemia): 41.9 µM
TGI (OVCAR-4 ovarian): 41.1 µM
TGI (SW-620 colon): 30.6 µM
TGI (HCC-2998 colon): 38.4 µM
TGI (MDA-MB-435): 31.6 µM
TGI (OVCAR-3 ovarian): 17.9 µM
TGI (HT29 colon): > 100 µM
TGI (SF-539 CNS): 37.5 µM
TGI (NCI-H522 lung): 35.9 µM
TGI (IGROV1 ovarian): 34 µM
TGI (A549 NSCLC): 47.2 µM
TGI (M14 melanoma): 30.1 µM
TGI (NCI-H23 lung): 44.9 µM
TGI (CCRF-CEM leukemia): 94.2 µM
TGI (DU-145 prostate): 28.7 µM
TGI (RPMI-8226 leukemia): 59.8 µM
TGI (SNB-75 CNS): 31.6 µM
TGI (UACC-257 melanoma): 31 µM
TGI (SN12C renal): 27.9 µM
TGI (SF-268 CNS): 86.7 µM
TGI (HCT-15 colon): 32.7 µM
TGI (MCF7 breast): 37.5 µM
TGI (SF-295 CNS): 24.5 µM
TGI (NCI-H460 lung): 35.5 µM
TGI (EKVX NSCLC): 92.1 µM
TGI (SK-OV-3 ovarian): 26.4 µM
TGI (K-562 leukemia): > 100 µM
TGI (LOX IMVI melanoma): 26.9 µM

Cc1cc(S(=O)(=O)Nc2n[nH]c(N)n2)c(Cl)cc1Cl
TGI (CAKI-1 renal): > 10 µM
TGI (A498 renal): > 10 µM
TGI (U251 CNS): > 10 µM
TGI (HOP-62 NSCLC): > 10 µM
TGI (SK-MEL-5 melanoma): > 10 µM
TGI (NCI/ADR-RES ovarian): > 10 µM
TGI (786-0 renal): > 10 µM
TGI (ACHN renal): > 10 µM
TGI (OVCAR-5 ovarian): > 10 µM
TGI (MOLT-4 leukemia): > 10 µM
TGI (NCI-H226 lung): > 10 µM
TGI (UACC-62 melanoma): > 10 µM
TGI (SK-MEL-2 melanoma): > 10 µM
TGI (PC-3 prostate): > 10 µM
TGI (BT-549 breast): > 10 µM
TGI (KM12 colon): > 10 µM
TGI (TK-10 renal): > 10 µM
TGI (OVCAR-8 ovarian): > 10 µM
TGI (HS 578T breast): > 10 µM
TGI (SNB-19 CNS): > 10 µM
TGI (T-47D breast): > 10 µM
TGI (COLO 205 colon): > 10 µM
TGI (MDA-N): > 10 µM
TGI (MDA-MB-231 breast): > 10 µM
TGI (HCT-116 colon): > 10 µM
TGI (HL-60(TB) leukemia): > 10 µM
TGI (OVCAR-4 ovarian): > 10 µM
TGI (SW-620 colon): > 10 µM
TGI (SK-MEL-28 melanoma): > 10 µM
TGI (HCC-2998 colon): > 10 µM
TGI (MDA-MB-435): > 10 µM
TGI (OVCAR-3 ovarian): > 10 µM
TGI (HT29 colon): > 10 µM
TGI (SF-539 CNS): > 10 µM
TGI (NCI-H522 lung): > 10 µM
TGI (IGROV1 ovarian): > 10 µM
TGI (A549 NSCLC): > 10 µM
TGI (M14 melanoma): > 10 µM
TGI (NCI-H23 lung): > 10 µM
TGI (RXF 393 renal): > 10 µM
TGI (CCRF-CEM leukemia): > 10 µM
TGI (DU-145 prostate): > 10 µM
TGI (RPMI-8226 leukemia): > 10 µM
TGI (SNB-75 CNS): > 10 µM
TGI (UACC-257 melanoma): > 10 µM
TGI (MALME-3M melanoma): > 10 µM
TGI (SN12C renal): > 10 µM
TGI (SF-268 CNS): > 10 µM
TGI (HCT-15 colon): > 10 µM
TGI (SF-295 CNS): > 10 µM
TGI (NCI-H460 lung): > 10 µM
TGI (EKVX NSCLC): > 10 µM
TGI (SK-OV-3 ovarian): > 10 µM
TGI (K-562 leukemia): > 10 µM
TGI (LOX IMVI melanoma): > 10 µM

O=c1[nH]c(NCc2ccc(Cl)cc2)nc2nc[nH]c12
TGI (CAKI-1 renal): > 100 µM
TGI (UO-31 renal): > 100 µM
TGI (A498 renal): > 100 µM
TGI (U251 CNS): > 100 µM
TGI (HOP-62 NSCLC): > 100 µM
TGI (SK-MEL-5 melanoma): > 100 µM
TGI (NCI/ADR-RES ovarian): > 100 µM
TGI (786-0 renal): > 100 µM
TGI (ACHN renal): > 100 µM
TGI (OVCAR-5 ovarian): > 100 µM
TGI (MOLT-4 leukemia): > 100 µM
TGI (NCI-H226 lung): > 100 µM
TGI (UACC-62 melanoma): > 100 µM
TGI (SK-MEL-2 melanoma): > 100 µM
TGI (PC-3 prostate): > 100 µM
TGI (BT-549 breast): > 100 µM
TGI (KM12 colon): > 100 µM
TGI (TK-10 renal): > 100 µM
TGI (OVCAR-8 ovarian): > 100 µM
TGI (HS 578T breast): > 100 µM
TGI (SNB-19 CNS): > 100 µM
TGI (T-47D breast): > 100 µM
TGI (COLO 205 colon): > 100 µM
TGI (MDA-N): > 100 µM
TGI (HOP-92 NSCLC): > 100 µM
TGI (MDA-MB-231 breast): > 100 µM
TGI (HCT-116 colon): > 100 µM
TGI (OVCAR-4 ovarian): > 100 µM
TGI (SW-620 colon): > 100 µM
TGI (HCC-2998 colon): > 100 µM
TGI (MDA-MB-435): > 100 µM
TGI (OVCAR-3 ovarian): > 100 µM
TGI (HT29 colon): > 100 µM
TGI (SF-539 CNS): > 100 µM
TGI (NCI-H522 lung): > 100 µM
TGI (IGROV1 ovarian): > 100 µM
TGI (A549 NSCLC): > 100 µM
TGI (M14 melanoma): > 100 µM
TGI (NCI-H23 lung): > 100 µM
TGI (RXF 393 renal): > 100 µM
TGI (CCRF-CEM leukemia): > 100 µM
TGI (DU-145 prostate): > 100 µM
TGI (RPMI-8226 leukemia): > 100 µM
TGI (SNB-75 CNS): > 100 µM
TGI (UACC-257 melanoma): > 100 µM
TGI (MALME-3M melanoma): > 100 µM
TGI (SN12C renal): > 100 µM
TGI (SF-268 CNS): > 100 µM
TGI (HCT-15 colon): > 100 µM
TGI (MCF7 breast): > 100 µM
TGI (SF-295 CNS): > 100 µM
TGI (NCI-H460 lung): > 100 µM
TGI (EKVX NSCLC): > 100 µM
TGI (SK-OV-3 ovarian): > 100 µM
TGI (K-562 leukemia): > 100 µM
TGI (LOX IMVI melanoma): > 100 µM

Reference: PubChem BioAssay (NCI)
